From patent US4746675A, “External pharmaceutical composition” (Teijin Limited, priority 1983, dated 1988)

Columns and labels:
carrageenan edema = carrageenan edema inhibiting effect of betamethasone valerate ointments; assay type: in vivo, rat; conditions: Table 5, betamethasone valerate ointment with penetration enhancer
Method: An ointment was prepared from 0.15 part by weight of betamethasone valerate, 9.85 parts by weight of compound (168) and 90 parts by weight of the hydrophilic ointment.
In accordance with the method of R. Passarella et al. [Argneim. Forsch 30, (I), Nr. 4, 647-651 (1980)], the carrageenan edema inhibiting effect of the above ointment was examined. Specifically, 0.1 ml of a 1% carrageenan suspension in 0.9% NaCl solution was injected into the tip of the right leg of a rat (body weight 150-175 g). The foot volume was measured immediately after administration of carrageenan and 3, 5, and 6 hours after the administration by means of a mercury displacement device. 0.5, 1 and 2 hours after the administration of carrageenan, 100 mg of the ointment was well […] into each of the sites which underwent inflammation.
Various ointments were prepared from 0.15 part by weight of betamethasone valerate, […] of the various penetration enhancers shown in Table 5, and 85 parts by weight of the hydrophilic ointment, and tested in the same way as in Example 23.

[1] = system: eye (cornea, iris, conjunctiva); test: primary eye irritation (Draize) in rabbits; assay type: in vivo, white native male rabbits; conditions: 2.4% soln, average of three rabbits
Method: enhancers of this invention shown in Table 17 was applied dropwise to one eye of white native male rabbits (body weight 2.0 to 3.0 kg; 3 per group) which, it had been ascertained, were free from any trouble at the cornea, iris and conjunctiva. Nothing was applied to the other eye. Thus, irritation of the absorption aid to the mucous membrane of the eyes were examined, and scores were calculated in accordance with the Draize's eye irritation evaluating method [Association of Foods, "Drugs and Cosmetics" (1957)].
As a control, sodium laurylsulfate, a kind of surface-active agent, was evaluated in the same way, and the results are also shown in Table 17.

SMILES: CCCCCCCC(=O)OCC(COC(=O)[C@@H]1CCC(=O)N1)OC(=O)CCCCCCC (some centres unmarked) [Compound (162), 2,3-dioctanoyloxy-1-pyroglutamyloxypropane]
- Percentage inhibition vs. control (carrageenan edema; 3 hrs): 16.1%
- Percentage inhibition vs. control (carrageenan edema; 5 hrs): 34.0%
- Percentage inhibition vs. control (carrageenan edema; 6 hrs): 34.2%
- Primary irritation score, Conjunctiva ([1]; 1 hour): 3.3
- Primary irritation score, Cornea ([1]; 1 hour): 0
- Primary irritation score, Iris ([1]; 1 hour): 0
- Primary irritation score, Total ([1]; 1 hour): 3.3
- Primary irritation score, Conjunctiva ([1]; 3 hours): 2.0
- Primary irritation score, Cornea ([1]; 3 hours): 0
- Primary irritation score, Iris ([1]; 3 hours): 0
- Primary irritation score, Total ([1]; 3 hours): 2.0
- Primary irritation score, Conjunctiva ([1]; 6 hours): 2.0
- Primary irritation score, Cornea ([1]; 6 hours): 0
- Primary irritation score, Iris ([1]; 6 hours): 0
- Primary irritation score, Total ([1]; 6 hours): 2.0
- Primary irritation score, Conjunctiva ([1]; 24 hours): 0
- Primary irritation score, Cornea ([1]; 24 hours): 0
- Primary irritation score, Iris ([1]; 24 hours): 0
- Primary irritation score, Total ([1]; 24 hours): 0
- Primary irritation score, Conjunctiva ([1]; 48 hours): 0
- Primary irritation score, Cornea ([1]; 48 hours): 0
- Primary irritation score, Iris ([1]; 48 hours): 0
- Primary irritation score, Total ([1]; 48 hours): 0
- Primary irritation score, Conjunctiva ([1]; 72 hours): 0
- Primary irritation score, Cornea ([1]; 72 hours): 0
- Primary irritation score, Iris ([1]; 72 hours): 0
- Primary irritation score, Total ([1]; 72 hours): 0
- Primary irritation score, Conjunctiva ([1]; 96 hours): 0
- Primary irritation score, Cornea ([1]; 96 hours): 0
- Primary irritation score, Iris ([1]; 96 hours): 0
- Primary irritation score, Total ([1]; 96 hours): 0
- Primary irritation score, Conjunctiva ([1]; 168 hours): 0
- Primary irritation score, Cornea ([1]; 168 hours): 0
- Primary irritation score, Iris ([1]; 168 hours): 0
- Primary irritation score, Total ([1]; 168 hours): 0

SMILES: CCCCC(=O)OCC(COC(=O)[C@@H]1CCC(=O)N1)OC(=O)CCCC (some centres unmarked) [Compound (158), 2,3-divaleryloxy-1-pyroglutamyloxypropane]
- Percentage inhibition vs. control (carrageenan edema; 3 hrs): 18.0%
- Percentage inhibition vs. control (carrageenan edema; 5 hrs): 36.0%
- Percentage inhibition vs. control (carrageenan edema; 6 hrs): 36.1%

SMILES: CCCCCCCC(=O)OCC(O)COC(=O)[C@@H]1CCC(=O)N1 (some centres unmarked) [Compound (160), 2-hydroxy-3-octanoyloxy-1-pyroglutamyloxypropane]
- Percentage inhibition vs. control (carrageenan edema; 3 hrs): 17.7%
- Percentage inhibition vs. control (carrageenan edema; 5 hrs): 30.8%
- Percentage inhibition vs. control (carrageenan edema; 6 hrs): 29.9%

SMILES: CCC=CC(=O)OCC(O)COC(=O)[C@@H]1CCC(=O)N1 (some centres unmarked) [Compound (184), 2-hydroxy-3(2-pentenoyloxy)-1-pyroglutamyloxypropane]
- Percentage inhibition vs. control (carrageenan edema; 3 hrs): 19.0%
- Percentage inhibition vs. control (carrageenan edema; 5 hrs): 35.3%
- Percentage inhibition vs. control (carrageenan edema; 6 hrs): 35.5%

SMILES: CCCCCCCC/C=C\CCCCCCCC(=O)OCC(COC(=O)C1CCC(=O)N1)OC(=O)CCCCCCC/C=C\CCCCCCCC (centres unmarked) [Compound (170), 2,3,-dioleoyloxy-1-pyroglutamyloxypropane]
- Percentage inhibition vs. control (carrageenan edema; 3 hrs): 17.9%
- Percentage inhibition vs. control (carrageenan edema; 5 hrs): 33.4%
- Percentage inhibition vs. control (carrageenan edema; 6 hrs): 36.2%

SMILES: CCCCCCCCCCCCCCCCCCOCC(O)COC(=O)[C@@H]1CCC(=O)N1 (some centres unmarked) [Compound (112), 2-hydroxy-3-octadecyloxy-1-pyroglutamyloxypropane]
- Percentage inhibition vs. control (carrageenan edema; 3 hrs): 17.8%
- Percentage inhibition vs. control (carrageenan edema; 5 hrs): 32.2%
- Percentage inhibition vs. control (carrageenan edema; 6 hrs): 33.0%

SMILES: CCCCCCCC=CCCCCCCCCOCC(COC(=O)[C@@H]1CCC(=O)N1)OCCCCCCCCC=CCCCCCCC (some centres unmarked) [Compound (142), 2,3-di(9-heptadecenyloxy)-1-pyroglutamyloxypropane]
- Percentage inhibition vs. control (carrageenan edema; 3 hrs): 16.5%
- Percentage inhibition vs. control (carrageenan edema; 5 hrs): 34.6%
- Percentage inhibition vs. control (carrageenan edema; 6 hrs): 34.0%
